# According to paper PMC4346889, “Discovery of Akt Kinase Inhibitors through Structure-Based Virtual Screening and Their Evaluation as Potential Anticancer Agents” (International Journal of Molecular Sciences, 2015):
# Legend:
# [1] = tested on: HEK-293 normal human embryonic kidney cells; experiment: Cytotoxicity evaluation, ATPLite cell viability; type: cell-based; details: HEK293, 48 h, concentration required to inhibit cell growth by 50%, 2 days incubation
# Experimental: (§1) The 26 test compounds (as listed in Figure 4) were further evaluated at 100 µM for their cytotoxicity against HCT-116 human colon cancer cells and HEK-293 normal human embryonic kidney cells. […] Their chemical structures are shown in Figure S1 in the Supplementary Material.
# (§2) Compounds were evaluated at 100 µM for their cytotoxicity against HCT-116 human colon cancer cells and HEK-293 normal human embryonic kidney cells. Cells were seeded at a density of 1 × 10^4 cells/well in 96-well plates and allowed to attach overnight. Cells were then treated with test compounds or 1% DMSO (vehicle control) and incubated at 37 °C in an atmosphere of 5% CO2 for 2 days. The ATPLite kit (PerkinElmer, Waltham, MA, USA) was used for detecting the cell viability.
# [2] = tested on: HCT-116 human colon cancer cells; experiment: Cytotoxicity evaluation, ATPLite cell viability; type: cell-based; details: at 100 µM, compared with reference H-89
# Experimental: as §1, §2
# [3] = tested on: HCT-116 human colon cancer cells; experiment: Cytotoxicity evaluation, ATPLite cell viability; type: cell-based; details: for IC50: Homo sapiens, HCT-116, 48 h, concentration required to inhibit cell growth by 50%, 2 days incubation; for Selectivity index: ratio of IC50 for HEK-293/IC50 for HCT-116
# Akt kinase [4] = molecular target: T1, Akt kinase (Homo sapiens, UniProt P31749); experiment: Akt kinase inhibition assay (EKS-400A assay kit); type: biochemical
# T1 construct: purchased Enzo Life Sciences EKS-400A
# Experimental: The 48 selected compounds from virtual screening were assessed at 100 µM for their ability to inhibit Akt kinase activity using the EKS-400A assay kit (Enzo Life Sciences, Farmingdale, NY, USA).
# Compounds were evaluated at 100 µM for their ability to inhibit Akt kinase activity using the EKS-400A assay kit (Enzo Life Sciences). Test compounds or 1% DMSO (vehicle control) were incubated with the 8 ng pure Akt kinase in Hanks’ Balanced Salt Solution (HBSS) at 37 °C for 30 min.
# Akt kinase [5] = molecular target: T1, Akt kinase; details: cited from earlier work
# T1 sequence (P31749 whole entry): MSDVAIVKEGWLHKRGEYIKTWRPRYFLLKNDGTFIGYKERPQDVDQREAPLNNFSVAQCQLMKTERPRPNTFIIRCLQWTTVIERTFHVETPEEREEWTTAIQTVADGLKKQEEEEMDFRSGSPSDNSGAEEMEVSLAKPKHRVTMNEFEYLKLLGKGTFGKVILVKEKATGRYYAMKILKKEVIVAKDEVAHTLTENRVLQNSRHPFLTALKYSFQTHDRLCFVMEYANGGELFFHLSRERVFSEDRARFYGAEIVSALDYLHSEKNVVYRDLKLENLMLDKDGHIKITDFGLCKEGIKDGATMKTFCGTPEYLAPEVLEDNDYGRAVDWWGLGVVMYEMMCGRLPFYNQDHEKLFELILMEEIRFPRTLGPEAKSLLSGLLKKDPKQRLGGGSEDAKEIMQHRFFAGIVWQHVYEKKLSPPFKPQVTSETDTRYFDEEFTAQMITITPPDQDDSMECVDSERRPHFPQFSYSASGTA
IC50 (Akt kinase [4]) [µM],inhibition at 100 µM (Akt kinase [4]; at 100 µM) [%],"remaining activity at 100 µM (Akt kinase [4]; compound at 100 µM, read-out: Akt kinase residual activity) [%]",Structure (SMILES),IC50 [1] [µM],cytotoxic activity against HCT-116 compared to H-89 [2],IC50 [3] [µM],Selectivity index [3],pan-Akt kinase inhibitor activity (Akt kinase [5])
–,–,–,Cc1cccc(Nc2nc3nonc3nc2N/N=C/c2cc3c(cc2Br)OCO3)c1C [a33],165,more potent or comparable cytotoxic activity to that of H-89,109,1.5,–
201,–,–,Cc1nn(C)cc1-c1nnc(SCC(=O)Nc2cc(C(F)(F)F)ccc2Cl)n1-c1ccc(Cl)cc1 [Compound a46],139,–,11.1,12.5,–
–,–,–,Cc1cccc(-c2nc3cc(/N=C/c4c(C)cc(O)c(C)c4O)ccc3o2)c1 [a44],102,more potent or comparable cytotoxic activity to that of H-89,50.6,2.0,–
–,75,< 60,Nc1ncnc2nc(SCC(=O)Nc3ccc(Br)cc3)[nH]c12 [Compound a48],153,–,9.5,16.1,–
–,–,–,CCn1c(-c2nonc2N)nc2c(C#CC(C)(C)O)ncc(OC[C@H]3CCCNC3)c21 [GSK690693],–,–,–,–,low nanomolar activity
–,–,–,"O=S(=O)(NCCNC/C=C/c1ccc(Br)cc1)c1cccc2cnccc12 [Compound H-89, H-89, reference compound]",112,–,78.9,–,–
